Reference: patent publication US20250375525A1, “USE OF INDOCYANINE GREEN IN ANTIBACTERIAL OR BACTERICIDAL APPLICATION” (Buddhist Tzu Chi Medical Foundation, priority 2024, published 2025)

Experiments:
mycoplasma [1] = assay: DAPI staining of mycoplasma in HT1080-1B3 cells after ICG light treatment; type: cell-based; details: HT-1080-1B3 cells (overexpress OATP1B3); 50 μg/mL indocyanine green + 780 nm laser, 10 minutes
Method: (§1) After HT1080-1B3 cells are treated with 50 μg/mL ICG and irradiated with near-infrared light excitation, the distribution of mycoplasma in each group was observed by DAPI staining (the red arrow indicates the expression position of mycoplasma). CTL: control group; −Laser: not excited by laser; +Laser: excited by laser.
(§2) First, HT1080-1B3 and HEK293 cells were collected through trypsin-EDTA reaction and then seeded into a six-well plate at a cell number of 3×10^5 cells/well. The next day, a working concentration of 50 μg/mL of ICG was added to each well, and the reaction took place in the dark at 37° C. for 1 hour. After the reaction was completed, the cells were irradiated with near-infrared light of 780 nm wavelength for 10 minutes. The supernatant was removed, and the cells were washed twice with PBS. Then, a working concentration of 1 μg/ml DAPI was added to each well, and the reaction took place in the dark at room temperature for 15 minutes. Finally, washed twice with PBS, and the quantitative changes of stained mycoplasma chromosomes were observed under the UV light mode of an inverted fluorescence microscope (Nikon).

HT-1080-1B3 cells = assay: MTT analysis of cell survival rate after ICG and near-infrared light irradiation; type: cell-based; details: ICG at different concentrations + near-infrared light (780 nm) irradiation
From the text: (§3) After administering ICG and near-infrared light (780 nm) excitation and irradiation to HEK293 cells and HT-1080-1B3 cells, observing the cell survival rates of different concentration groups by MTT analysis.

mycoplasma [2] = assay: RT-PCR of mycoplasma DNA in HT1080-1B3 cells after ICG light treatment; type: cell-based; details: HT-1080-1B3 cells (overexpress OATP1B3); 50 μg/mL indocyanine green + 780 nm laser, 10 minutes
Method: (§4) (A) After HEK293 cells are treated with 50 μg/mL ICG and irradiated with near-infrared light excitation, the expression level of mycoplasma DNA in each group was observed by RT-PCR and DNA electrophoresis. (B) Results of DNA electrophoresis were quantitated by the Image J software (p-value: *<0.05, **<0.01, and ***<0.001).
(§5) HT1080-1B3 and HEK293 cells were collected through trypsin-EDTA reaction and then seeded into a six-well plate at a cell number of 3×10^5 cells/well. The next day, a working concentration of 50 μg/mL of ICG was added to each well, and the reaction took place in the dark at 37° C. for 1 hour. After the reaction was completed, the cells were irradiated with near-infrared light of 780 nm wavelength for 10 minutes, the supernatant was removed, and the cells were washed twice with PBS. Then, the cells were collected into a 1.5 mL test tube with trypsin-EDTA, 100 μL KAPA rapid extraction buffer was added to the test tube, and the test tube was placed in a dry bath at 75° C. for 10 minutes and at 95° C. for 5 minutes. Then, DNA samples were prepared according to the operating manual of the e-Myco™ VALID Mycoplasma PCR detection kit, and PCR reaction was performed by PCR instrument (Applied Biosystems) under setting conditions (30 cycles: 95° C./3 minutes, 95° C./15 seconds, 55° C./15 seconds, 72° C./20 seconds and 72° C./1 minute). […]

HEK293 cells = assay: MTT analysis of cell survival rate after ICG and near-infrared light irradiation; type: cell-based, human; details: ICG at different concentrations + near-infrared light (780 nm) irradiation
From the text: as §3

mycoplasma [3] = assay: DAPI staining of mycoplasma in HEK293 cells after ICG light treatment; type: cell-based; details: 50 μg/mL ICG + 780 nm laser, 10 minutes
Method: as §1, with “HEK293” for “HT1080-1B3”
as §2

mycoplasma [4] = assay: RT-PCR of mycoplasma DNA in HEK293 cells after ICG light treatment; type: cell-based; details: 50 μg/mL ICG + 780 nm laser, 10 minutes
Method: as §4, §5

CC1(C)C(/C=C/C=C/C=C/C=C2\N(CCCCS(=O)(=O)O)c3ccc4ccccc4c3C2(C)C)=[N+](CCCCS(=O)(=O)[O-])c2ccc3ccccc3c21 [ICG, Indocyanine green]
number of mycoplasma bacteria (DAPI staining) (mycoplasma [1]): disappears
cell survival rate (MTT analysis) (HT-1080-1B3 cells): no negative impact on cells
expression level of mycoplasma DNA (RT-PCR, DNA electrophoresis) (mycoplasma [2]): no expression level of mycoplasma DNA was observed
cell survival rate (MTT analysis) (HEK293 cells): no negative impact on cells
number of mycoplasma bacteria (DAPI staining) (mycoplasma [3]): significantly reduced
expression level of mycoplasma DNA (RT-PCR, DNA electrophoresis) (mycoplasma [4]): significantly reduce
